Test results taken from US20020091095A1, “Modulation of Fas and FasL expression” (priority 1999, published 2002).

Tests used:
[1] = tested on: UMUC-3 bladder cancer cells; experiment: Inhibition of UMUC-3 bladder cancer cell proliferation (MTT reduction); format: cell-based, human; details: for % INHIBITION of cell proliferation: UMUC-3, 48 h
Experimental: UMUC-3 bladder cancer cells were incubated for 48 hours with 0.00, 0.02 and 0.20 μg/ml of agonistic anti-Fas monoclonal antibodies (clone CH-11: Coulter-Immunotech, Marseille, France) +0 or 10 μg/ml of SEQ ID NO:5. Cell proliferation was measured using dimethylthiazol-diphenyltetrazolium (MTT) reduction (Mosman et al. J. Immunol. Methods 65:55, 1983). MTT was measured at a wavelength of 570 nm using a multiplate spectrophotometer reader (ELX800, Bio-TEK Instruments Inc., Winooski, Vt.).

EAE = EAE in (SJL/J×PL/J) F1 mice induced with myelin basic protein; format: in vivo
Experimental: Female (SJL/J×PL/J) F1 mice are injected subcutaneously in both femoral regions with an emulsion containing 0.5 mg of myelin basic protein (MBP) mixed with complete Freund's adjuvant. After 24 h, 400 ng of Bordetella pertussis toxin is administered intraperitoneally. On the day of onset (day 0), group 1 mice receive saline, group 2 mice receive 1, 10 or 100 mg/kg of SEQ. ID NO:5, group 3 mice receive 1, 10 or 100 mg/kg of SEQ. ID NO:16, group 4 mice receive 1, 10 or 100 mg/kg of SEQ. ID NO:17, group 5 mice receive 1, 10 or 100 mg/kg of SEQ. ID NO: 18, group 6 mice receive anti-Fas antibodies, group 7 mice receive 1, 10 or 100 mg/kg of SEQ. ID NO:5 +anti-Fas antibodies, group 8 mice receive 1, 10 or 100 mg/kg of SEQ. ID NO:16 +anti-Fas antibodies, group 9 receive 1, 10 or 100 mg/kg of SEQ. ID NO:17 +anti-Fas antibodies, group 10 mice receive 1, 10 or 100 mg/kg of SEQ. ID NO: 18 +anti-Fas antibodies for 3 days by intracistemal administration (20 μg/day). In these different groups, anti-Fas antibodies are administered at any dose in the range of about 0.003 to about 0.3 mg/kg. […] The efficacy of the SEQ. ID NO:5, the SEQ. ID NO: 16 and the SEQ. ID NO: 17 is dose-dependent.

Fas = Fas expression at the cell surface by flow cytometry, SK-OV-3 cells; format: cell-based, human; details: SK-OV-3 ovarian cancer cells, 100 μg/ml sequence, 48 h, treated vs control cells
Experimental: (§1) Cancer cells and PBMCs were seeded in 6 well flat-bottom microplates and were maintained at 37° C. in a 5% CO2 atmosphere. Unless stated otherwise, 2×10^5 cells/ml were incubated for 48 h with 0 μg/ml (control) or 100 μg/ml ([…]) (treated) of the sequences.
(§2) Fas and FasL expression were measured by flow cytometry using anti-Fas FITC-conjugated monoclonal antibodies and anti-FasL PE-conjugated monoclonal antibodies in a FACScalibur Flow Cytometer (Becton Dickinson, San Jose, Calif., USA) using the CELLQuest program (Becton Dickinson).
(§3) Results are expressed as percentage (%) increase in the expression of Fas and of FasL measured on treated cells compared to control cells.
SK-OV-3 ovarian cancer cells are a p53 mutated, p21/waf-1/Cip deleted, p15^ink4B,p16^ink4 deleted metastatic human solid tumor model.

FasL = FasL expression at the cell surface by flow cytometry, OVCAR-3 cells; format: cell-based, human; details: OVCAR-3 ovarian cancer cells, 100 μg/ml sequence, 48 h, treated vs control cells
Experimental: as §1, §2, §3
OVCAR-3 ovarian cancer cells are a p53 mutated, p21/waf-1/Cip deleted, metastatic human solid tumor model.

[2] = tested on: EL-4 murine T lymphoma cells; experiment: EL-4 murine T lymphoma implanted in C57/BL6 lpr/lpr mice; format: in vivo
Experimental: EL-4 murine T lymphoma cells are implanted into C57/BL6 lpr/lpr (Fas negative mice). The mice are divided into 30 groups of 10 mice. On day 0, group 1 mice receive saline, group 2 mice receive 1, 10 or 100 mg/kg of SEQ. ID NO:5, group 3 mice receive 1, 10 or 100 mg/kg of SEQ. ID NO:16, group 4 receive 1, 10 or 100 mg/kg of SEQ. ID NO:17, group 5 mice receive 1, 10 or 100 mg/kg of SEQ. ID NO: 18, group 6 mice receive anti-Fas antibodies, group 7 mice receive 1, 10 or 100 mg/kg of SEQ. ID NO:5 +anti-Fas antibodies, group 8 mice receive 1, 10 or 100 mg/kg of SEQ. ID NO: 16 +anti-Fas antibodies, group 9 receive 1, 10 or 100 mg/kg of SEQ. ID NO:17 +anti-Fas antibodies, group 10 mice receive 1, 10 or 100 mg/kg of SEQ. ID NO:18 +anti-Fas antibodies. In these different groups, anti-Fas antibodies are administered at any dose in the range of about 0.003 to about 0.3 mg/kg. […] The efficacy of the SEQ. ID NO:5, the SEQ. ID NO: 16 and the SEQ. ID NO: 17 is dose-dependent.

In the case of GGGTGG [SEQ ID NO:5], the “effect on the inhibitory activity of agonistic anti-Fas antibodies on cell proliferation” value ([1]; UMUC-3, 0.02 and 0.2 μg/ml anti-Fas antibodies, 10 μg/ml sequence) is reported as “potentiated”, the “% INHIBITION of cell proliferation” value ([1]; 10 μg/ml sequence + anti-Fas antibodies 0.02 μg/ml) is reported as 38% and the “% INHIBITION of cell proliferation” value ([1]; 10 μg/ml sequence + anti-Fas antibodies 0.02 μg/ml (third column)) is reported as 44%. For the same sequence, the “% INHIBITION of cell proliferation” value ([1]; 10 μg/ml sequence, anti-Fas antibodies 0.0 μg/ml) was 23%, the “efficacy, dose dependence” value (EAE; 1, 10 or 100 mg/kg) was “dose-dependent” and the “progression of EAE” value (EAE; sequence 1, 10 or 100 mg/kg + anti-Fas antibodies, for 3 days) was “least progression of EAE”. The “% INCREASE Fas” value (Fas) was 3%, the “% INCREASE FasL” value (FasL) was 9% and the “efficacy, dose dependence” value ([2]; 1, 10 or 100 mg/kg) was “dose-dependent”. For the same sequence, the tumor mass ([2]; sequence 1, 10 or 100 mg/kg + anti-Fas antibodies, vs all other groups) was “least tumor mass” and the tumor mass ([2]; single agent (sequence 1, 10 or 100 mg/kg, or anti-Fas antibodies) vs group 1 (saline)) was “less tumor mass”.
